Measurements: patent US9644194B2, “Cold-adapted protease derived from Pseudoalteromonas arctica PAMC 21717 and uses thereof” (KOREA INSTITUTE OF OCEAN SCIENCE & TECHNOLOGY, priority 2014, dated 2017)

Columns and labels:
W-Pro21717 [1] = assay: Activity and stability of W-Pro21717 in the presence of metal ions and surfactants; type: biochemical, Pseudoalteromonas arctica PAMC 21717; conditions: 1 mM, on ice for 1 hour, FIG. 3; for influence on the activity of W-Pro21717: result in words
Protocol: In order to analyze the influence of metal ions and detergents, W-[…] was allowed to react with a standard buffer containing 1 mM BaCl2, CuSO4, MgSO4, CaCl2, ZnSO4, FePO4, KCl, NaCl, […], sodium linear alkylbenzene sulfonate (LAS) or SDS on ice for 1 hour. In addition, the compatibility of W-[…] with a commercial detergent (LG Household & Health Care, Korea; containing subtilisin Carlsberg) was analyzed using skim milk at temperatures of 10° C. and 30° C.

W-Pro21717 [2] = assay: Effect of protease inhibitors on W-Pro21717 activity; type: biochemical, Pseudoalteromonas arctica PAMC 21717; conditions: result in words
Protocol: (§1) The reaction solution was centrifuged, and then filtered through a filter having a pore size of 0.45 μm, and the filtrate was mixed and reacted with Folin & Ciocalteu's phenol solution and 500 mM sodium carbonate solution at 37° C. for 30 minutes. Next, the enzymatic activity of the reaction product was measured at 660 nm based on an L-tyrosine standard curve, and an amino acid production of 1 nmole/min/mg at 25° C. was defined as the activity of 1 unit of protease.
The kind of W-Pro21717 was analyzed by reactions with various protease inhibitors.

azocasein [3] = assay: Activity and stability of W-Pro21717 with temperature and pH; type: biochemical
Protocol: as §1, with “In order to measure the degradation activity of W-Pro21717, the cultured PAMC 21717 cells were centrifuged at 4° C. at 12,000×g for 30 minutes, and the supernatant was mixed with 50 mM sodium phosphate buffer (pH 7.6) containing 0.65% azocasein substrate, and was allowed to at 25° C. for 1 hour, and then additionally allowed to react at 37° C. for 1 hour after adding 110 mM trichloroacetic acid thereto. The” for “The”
A temperature optimal for the activity of W-Pro21717 was analyzed in the temperature range of 0 to 60° C., and the optimum pH was analyzed by 1-hour reactions in 50 mM sodium acetate (pH 2.0-6.0), 50 mM potassium phosphate (pH 7.0-10.0) and 50 mM sodium tetraborate (pH 10.0). As a control, 3 μg of the commercial protease Carlsberg subtilisin was used.

azocasein [4] = assay: Activity and stability of R-Pro21717 with temperature and pH; type: biochemical
Protocol: In order to determine a temperature optimal for the activity of the protease, R-Pro21717 was allowed to react at varying temperatures of 0˜70° C., and then analyzed. The stability of R-Pro21717 against temperature was analyzed by allowing R-Pro21717 at varying temperatures of 0˜70° C. for 1 hour, and then allowing R-Pro21717 to react a 0.65% azocasein-containing standard buffer at 30° C. for 30 minutes. As a control enzyme, Carlsberg subtilisin was used.
In order to determine a pH optimal for the activity of the protease, R-Pro21717-containing buffers having varying pHs were allowed to react at 30° C., and then analyzed. The stability of R-Pro21717 against pH was analyzed by allowing R-Pro21717-containing buffers having varying pHs to react on ice for 1 hour, and then reacting R-Pro21717 in 0.65% azocasein-containing standard buffer at 30° C. for 30 minutes. Carlsberg subtilisin was used as a control enzyme and analyzed at a reaction temperature of 40° C.

[5] = Substrate specificity of W-Pro21717 with synthetic peptides; type: biochemical; conditions: 25° C., 10 minutes, 410 nm
Protocol: The substrate specificity of W-Pro21717 was analyzed using 5 mM of each of the following 7 different synthetic peptides: N-succinyl-Ala-Ala-Val-p-nitroanilide (AAV), N-succinyl-Ala-Ala-Pro-Leu-p-nitroanilide (AAPL), N-succinyl-Ala-Ala-Ala-p-nitroanilide (AAA), N-succinyl-Gly-Gly-Phe-p-nitroanilide (GGF), N-succinyl-Thr-Leu-Val-p-nitroanilide (TLV), N-succinyl-Ala-Ala-Pro-Phe-p-nitroanilide (AAPF), and N-succinyl-Ala-Ala-Val-Ala-p-nitroanilide (AAVA). W-Pro21717 was allowed to react with a standard buffer containing 0.83 mM substrate at 25° C. for 10 minutes, and then the relative activity thereof was measured at 410 nm.

O=S(=O)([O-])[O-].[Zn+2] [Zn^2+, ZnSO4]
influence on the activity of W-Pro21717 (W-Pro21717 [1]): did not influence

[Ba+2].[Cl-].[Cl-] [Ba^2+, BaCl2]
influence on the activity of W-Pro21717 (W-Pro21717 [1]): did not influence

[Ca+2].[Cl-].[Cl-] [Ca^2+, CaCl2]
influence on the activity of W-Pro21717 (W-Pro21717 [1]): did not influence

O=C(O)CN(CCN(CC(=O)O)CC(=O)O)CC(=O)O [EDTA]
effect of inhibitor on the activity of W-Pro21717 (W-Pro21717 [2]): slightly inhibited

[Cl][Hg][Cl] [HgCl2]
effect of inhibitor on the activity of W-Pro21717 (W-Pro21717 [2]): inhibited

O=S(=O)(F)Cc1ccccc1 [PMSF]
effect of inhibitor on the activity of W-Pro21717 (W-Pro21717 [2]): inhibited

O=S(=O)([O-])[O-].[Mg+2] [Mg^2+, MgSO4]
influence on the activity of W-Pro21717 (W-Pro21717 [1]): did not influence

[Cl-].[Na+] [Na^2+, NaCl]
influence on the activity of W-Pro21717 (W-Pro21717 [1]): did not influence

O=S(=O)([O-])[O-].[Cu+2] [CuSO4]
increase of the activity of W-Pro21717 (W-Pro21717 [1]): about 60%

[Fe+2] [Fe^2+, FePO4]
influence on the activity of W-Pro21717 (W-Pro21717 [1]): did not influence

[Cl-].[K+] [K^+, KCl]
influence on the activity of W-Pro21717 (W-Pro21717 [1]): did not influence

B1: Subtilisin Carlsberg: commercial protease used as control enzyme (protein, UniProt P00780 106-379, looked up)
Subtilisin Carlsberg: AQTVPYGIPLIKADKVQAQGFKGANVKVAVLDTGIQASHPDLNVVGGASFVAGEAYNTDGNGHGTHVAGTVAALDNTTGVLGVAPSVSLYAVKVLNSSGSGSYSGIVSGIEWATTNGMDVINMSLGGASGSTAMKQAVDNAYAKGVVVVAAAGNSGSSGNTNTIGYPAKYDSVIAVGAVDSNSNRASFSSVGAELEVMAPGAGVYSTYPTNTYATLNGTSMASPHVAGAAALILSKHPNLSASQVRNRLSSTATYLGSSFYYGKGLINVEAAAQ
temperature optimal for the activity (azocasein [3]; tested 0 to 60° C., FIG. 2A): 60 °C
decrease in activity after a reaction at 40° C. for 1 hour (azocasein [3]; thermal stability, FIG. 2B): 80%
temperature at which stability / enzymatic activity decreases (azocasein [4]; 1 hour at temperature, then azocasein 30° C. 30 minutes, FIG. 9B): ≥ 50 °C
pH of highest activity (azocasein [4]; FIG. 9C): same results as those of R-Pro21717
pH optimal for the stability (azocasein [4]; on ice for 1 hour, FIG. 9D): same results as those of R-Pro21717
proteolytic activity at low temperature relative to the highest activity (azocasein [4]; printed 'at or'): did not show proteolytic activity
temperature optimal for the activity (azocasein [4]; tested 0˜70° C., FIG. 9A): 60 °C
Relative activity (%) ([5]; substrate AAPF): 100%
Relative activity (%) ([5]; substrate GGF): 0%
